Results published in patent US20250025459A1, “COVID-19 TREATMENT MEDICINE CHARACTERIZED BY COMBINING 3CL PROTEASE INHIBITOR AND COVID-19 TREATMENT DRUG” (priority 2021, published 2025).
Where two headings read alike, the source gives them in different places.

How the values were obtained:
SARS-CoV-2 = assay: microbe, parasite or virus in culture; assay type: cell-based; details: Severe acute respiratory syndrome coronavirus 2, 72 h; VeroE6/TMPRSS2 cells, 100 TCID50/well, 3 days; class symbols
SARS-CoV-2 3CL Protease = SARS-CoV-2 3CL Protease (Severe acute respiratory syndrome coronavirus 2 (2019-nCoV) (SARS-CoV-2), UniProt P0DTD1); assay: biochemical; assay type: biochemical
[1] = tested on: SARS-CoV-2 hCoV-19/Japan/TY/WK-521/2020; assay: Combination effect confirmation test, VeroE6/TMPRSS2 cells, strain WK-521; assay type: cell-based; details: for EC50 of single agent: VeroE6/TMPRSS2, 3 days
[2] = tested on: SARS-CoV-2 hCoV-19/Japan/TY11-927-P1/2021; assay: Combination effect confirmation test, VeroE6/TMPRSS2 cells, strain TY11-927-P1; assay type: cell-based; details: for EC50: Severe acute respiratory syndrome coronavirus 2, VeroE6/TMPRSS2, 72 h, single agent; for EC50 of single agent: VeroE6/TMPRSS2, 3 days
[3] = tested on: SARS-CoV-2 hCoV-19/Japan/TY7-501/2021; assay: Combination effect confirmation test, VeroE6/TMPRSS2 cells, strain TY7-501; assay type: cell-based
[4] = read-out: 50% SARS-CoV-2 3CL protease inhibitory concentration (IC50)
[5] = Severe acute respiratory syndrome coronavirus 2, 72 h, single agent, hCoV-19/Japan/TY/WK-521/2020, VeroE6/TMPRSS2, 1000 TCID50/well, 3 days
[6] = Severe acute respiratory syndrome coronavirus 2, VeroE6/TMPRSS2, 72 h, single agent, hCoV-19/Japan/TY7-501/2021, […]
[7] = single agent, hCoV-19/Japan/TY/WK-521/2020
[8] = recombinant enzyme, RapidFire MS, class symbols, read-out: IC50

Cn1cnc(Cn2c(=O)nc(Nc3cc4cn(CCO)nc4cc3Cl)n(Cc3cc(F)c(F)c(F)c3)c2=O)n1 [Compound I-028]
EC50 (SARS-CoV-2): 1000 to 10000 nM

Cc1cncc(-n2c(=O)nc(Nc3cc4cn(C)nc4cc3C)n(Cc3ccc(F)c(C#N)c3)c2=O)c1 [Compound I-019]
EC50 (SARS-CoV-2): < 1000 nM

Cc1cncc(-n2c(=O)nc(Nc3cc4cn(C)nc4cc3Cl)n(Cc3cc(F)c(F)c(F)c3)c2=O)c1 [Compound I-003]
IC50 (SARS-CoV-2 3CL Protease; [4]): 14 nM
EC50 [1, 5]: 177 nM

O=c1nc(Nc2cc3cn(CCN4CCOCC4)nc3cc2Cl)n(Cc2cc(F)c(F)c(F)c2)c(=O)n1-c1cncc2ccccc12 [Compound I-020]
EC50 (SARS-CoV-2): 1000 to 10000 nM

CC(C)(C)[C@H](NC(=O)C(F)(F)F)C(=O)N1C[C@H]2[C@@H]([C@H]1C(=O)N[C@H](C#N)C[C@@H]1CCNC1=O)C2(C)C [PF-07321332, reference compound]
EC50 [1, 5]: 7100 nM

Cn1cnc(Cn2c(=O)[nH]/c(=N\c3cc4cn(C)nc4cc3Cl)n(Cc3cc(F)c(F)cc3F)c2=O)n1
EC50 [2]: 410 nM
EC50 [3, 6]: 500 nM
EC50 [1, 5]: 370 nM

N#Cc1cc(Cn2c(Nc3ccc4nn(CC(F)F)cc4c3)nc(=O)n(-c3cncc4ccccc34)c2=O)ccc1F [Compound I-009]
EC50 (SARS-CoV-2): < 1000 nM

Cn1cc2cc(Nc3nc(=O)n(-c4cncc5ccccc45)c(=O)n3Cc3ccc(F)c(C#N)c3)c(F)cc2n1 [Compound I-025]
EC50 (SARS-CoV-2): < 1000 nM

Imdevimab: anti-SARS-CoV-2 monoclonal antibody
EC50 of single agent [1, 7]: 0.047 [μg/mL]

Cc1nc2cc(Cl)c(Nc3nc(=O)n(Cc4ncn(C)n4)c(=O)n3Cc3cc(F)c(F)c(F)c3)cc2n1C [Compound I-022]
EC50 (SARS-CoV-2): 1000 to 10000 nM

Cc1cncc(-n2c(=O)nc(Nc3cc4cn(C)nc4cc3F)n(Cc3ccc(F)c(C#N)c3)c2=O)c1 [Compound I-018]
EC50 (SARS-CoV-2): < 1000 nM

Cc1cncc(-n2c(=O)nc(Nc3cc4cn(C)nc4cc3Cl)n(Cc3cc(F)c(F)cc3F)c2=O)c1 [Compound I-012]
IC50 (SARS-CoV-2 3CL Protease; [4]): 9.1 nM

Cc1cc2nn(C)cc2cc1Nc1nc(=O)n(-c2cncc3ccccc23)c(=O)n1Cc1cc(F)c(F)c(F)c1 [Compound I-013]
EC50 (SARS-CoV-2): 1000 to 10000 nM
IC50 (SARS-CoV-2 3CL Protease; [8]): < 100 nM

N#Cc1cc(Cn2c(Nc3cc4cn(C(F)F)nc4cc3Cl)nc(=O)n(-c3cncc4ccccc34)c2=O)ccc1F [Compound I-024]
EC50 (SARS-CoV-2): < 1000 nM

Cn1cnc(Cn2c(=O)nc(Nc3cc4cn(C(F)F)nc4cc3Cl)n(Cc3cc(F)c(F)c(F)c3)c2=O)n1 [Compound I-030]
EC50 (SARS-CoV-2): 1000 to 10000 nM

Cc1cncc(-n2c(=O)nc(Nc3cc4cn(C(F)F)nc4cc3Cl)n(Cc3ccc(F)c(C#N)c3)c2=O)c1 [Compound I-026]
EC50 (SARS-CoV-2): < 1000 nM

Cc1cncc(-n2c(=O)nc(Nc3cc4cn(C)nc4cc3C)n(Cc3cc(F)c(F)c(F)c3)c2=O)c1 [Compound I-004]
EC50 (SARS-CoV-2): 1000 to 10000 nM

CCC(CC)COC(=O)[C@H](C)N[P@](=O)(OC[C@H]1O[C@@](C#N)(c2ccc3c(N)ncnn23)[C@H](O)[C@@H]1O)Oc1ccccc1 [Remdesivir, reference compound]
EC50 [2]: 2000 nM
EC50 [3, 6]: 2300 nM
EC50 ([1]; Severe acute respiratory syndrome coronavirus 2, VeroE6/TMPRSS2, 72 h, single agent, hCoV-19/Japan/TY/WK-521/2020, […]): 2500 nM

Sotrovimab: anti-SARS-CoV-2 monoclonal antibody
EC50 of single agent [2]: 1.06(μg/mL)

Casirivimab: anti-SARS-CoV-2 monoclonal antibody
EC50 of single agent [1, 7]: 0.077 [μg/mL]

CC(=O)NCCn1cc2cc(Nc3nc(=O)n(-c4cncc5ccccc45)c(=O)n3Cc3cc(F)c(F)c(F)c3)c(Cl)cc2n1 [Compound I-033]
EC50 (SARS-CoV-2): 1000 to 10000 nM

Cn1cc2cc(Nc3nc(=O)n(-c4cncc5ccccc45)c(=O)n3Cc3ccc(F)c(C#N)c3)c(Cl)cc2n1 [Compound I-015]
EC50 (SARS-CoV-2): < 1000 nM

Bebtelovimab: anti-SARS-CoV-2 monoclonal antibody
EC50 of single agent [2]: 0.0231(μg/mL)

O=c1nc(Nc2ccc3nn(CC(F)F)cc3c2)n(Cc2cc(F)c(F)c(F)c2)c(=O)n1-c1cncc2ccccc12 [Compound I-034]
EC50 (SARS-CoV-2): < 1000 nM

Cn1cc2cc(Nc3nc(=O)n(-c4cncc5ccccc45)c(=O)n3Cc3cc(F)c(F)c(F)c3)ccc2n1 [Compound I-016]
EC50 (SARS-CoV-2): < 1000 nM

O=c1nc(NO)ccn1[C@@H]1O[C@H](CO)[C@@H](O)[C@H]1O [EIDD-1931, reference compound]
EC50 ([3]; read-out: EC50 of single agent): 1500 nM
EC50 ([1]; read-out: EC50 of single agent): 690 nM

Cn1cnc(Cn2c(=O)nc(Nc3cc4cn(CC(F)F)nc4cc3Cl)n(Cc3cc(F)c(F)c(F)c3)c2=O)n1 [Compound I-029]
EC50 (SARS-CoV-2): < 1000 nM

Cc1cncc(-n2c(=O)nc(Nc3ccc4nn(CC(F)F)cc4c3)n(Cc3ccc(F)c(C#N)c3)c2=O)c1 [Compound I-011]
EC50 (SARS-CoV-2): < 1000 nM

Cc1cc2nn(C)cc2cc1Nc1nc(=O)n(-c2cncc3ccccc23)c(=O)n1Cc1ccc(F)c(C#N)c1 [Compound I-027]
EC50 (SARS-CoV-2): < 1000 nM

N#Cc1cc(Cn2c(Nc3cc4cn(CCO)nc4cc3Cl)nc(=O)n(-c3cncc4ccccc34)c2=O)ccc1F [Compound I-031]
EC50 (SARS-CoV-2): 1000 to 10000 nM
IC50 (SARS-CoV-2 3CL Protease; [8]): < 100 nM

Cc1nc2cc(Cl)c(Nc3nc(=O)n(-c4cncc5ccccc45)c(=O)n3Cc3cc(F)c(F)c(F)c3)cc2n1C [Compound I-032]
EC50 (SARS-CoV-2): 1000 to 10000 nM
IC50 (SARS-CoV-2 3CL Protease; [8]): < 100 nM

Cn1cnc(Cn2c(=O)nc(Nc3cc4cn(C)nc4cc3Cl)n(Cc3cc(F)c(F)c(F)c3)c2=O)n1 [Compound I-021]
EC50 (SARS-CoV-2): < 1000 nM

CN(C)C(=O)COC(=O)Cc1ccc(OC(=O)c2ccc(NC(=N)N)cc2)cc1 [Camostatmesylate, reference compound]
EC50 [1, 5]: 1300 nM

Cc1cncc(-n2c(=O)nc(Nc3cc4cn(C)nc4cc3F)n(Cc3cc(F)c(F)c(F)c3)c2=O)c1 [Compound I-002]
EC50 (SARS-CoV-2): < 1000 nM

Cn1cc2cc(Nc3nc(=O)n(-c4cncc5ccccc45)c(=O)n3Cc3cc(F)c(F)c(F)c3)c(Cl)cc2n1 [Compound I-014]
EC50 (SARS-CoV-2): < 1000 nM
